Laboratory results from patent US4661602A, “Substituted alkyl imidazole derivatives” (G. D. Searle & Co., priority 1985, dated 1987).
Converted amounts (≈) assume the structure as drawn. Counter-ions that a name gives are not always drawn.

Columns and labels:
[1] = system: B. Fragilis NCTC 9344; experiment: Anti-anaerobic activity, strain C (microtitre plate MIC/MBC); assay type: cell-based; details: Bacteroides fragilis, NCTC9344, 48 h, strain C; for MIC: 48 hours, 37° C., anaerobic chamber, lowest concentration with no detectable growth, read-out: MIC; for MBC: less than 5 colonies (99.9% reduction in viable count) after 48 hours, read-out: MBC
[2] = system: B. Fragilis ATCC 11295; experiment: Anti-anaerobic activity, strain D (microtitre plate MIC/MBC); assay type: cell-based; details: Bacteroides fragilis, ATCC11295, 48 h, strain D; for MIC: 48 hours, 37° C., anaerobic chamber, lowest concentration with no detectable growth; for MBC: less than 5 colonies (99.9% reduction in viable count) after 48 hours, read-out: MBC
[3] = system: B. Fragilis WS-1; experiment: Anti-anaerobic activity, strain E (microtitre plate MIC/MBC); assay type: cell-based; details: Bacteroides fragilis, 48 h, strain E; for MIC: 48 hours, 37° C., anaerobic chamber, lowest concentration with no detectable growth, read-out: MIC; for MBC: less than 5 colonies (99.9% reduction in viable count) after 48 hours, read-out: MBC
[4] = system: B. Fragilis NCTC 9343; experiment: Anti-anaerobic activity, strain B (microtitre plate MIC/MBC); assay type: cell-based, Bacteroides fragilis; details: Bacteroides fragilis, NCTC9343, 48 h, strain B; for MIC: 48 hours, 37° C., anaerobic chamber, lowest concentration with no detectable growth, read-out: MIC; for MBC: less than 5 colonies (99.9% reduction in viable count) after 48 hours, read-out: MBC
[5] = system: B. Fragilis NCTC 10581; experiment: Anti-anaerobic activity, strain A (microtitre plate MIC/MBC); assay type: cell-based, Bacteroides fragilis; details: Bacteroides fragilis, NCTC10581, 48 h, strain A; for MIC: 48 hours, 37° C., anaerobic chamber, lowest concentration with no detectable growth, read-out: MIC; for MBC: less than 5 colonies (99.9% reduction in viable count) after 48 hours, read-out: MBC

MIC [1] [µg/mL] | MIC [2] [µg/mL] | MIC [3] [µg/mL] | MIC [4] [µg/mL] | MIC [5] [µg/mL] | Compound | MBC [1] [µg/mL] | MBC [2] [µg/mL] | MBC [3] [µg/mL] | MBC [4] [µg/mL] | MBC [5] [µg/mL]
100 (≈ 250 µM) | 100 (≈ 250 µM) | 12.5 (≈ 31.3 µM) | 100 (≈ 250 µM) | 100 (≈ 250 µM) | Clc1ccc(N2CCN=C2C(CCn2ccnc2)c2ccccc2)c(Cl)c1 (stereo not drawn) [Example 27, 1-(2,4-Dichlorophenyl)-4,5-dihydro-2-[3-(imidazol-1-yl)-1-phenylpropyl]imidazole] | – | – | – | – | –
100 | 100 | 100 | 100 | 25 | CCCCCCN1CCN=C1C(Cn1ccnc1)c1ccccc1.Cl (stereo not drawn) [Example 25, 4,5-Dihydro-1-n-hexyl-2-[2-(imidazol-1-yl)-1-phenylethyl]imidazole hydrochloride] | – | – | – | – | –
– | – | – | 1.5 | 6.2 | CSc1nccn1CC(C1=NCCN1c1ccc(Cl)cc1Cl)c1ccccc1 (stereo not drawn) [Example 22, 1-(2,4-Dichlorophenyl)-4,5-dihydro-2-[1-phenyl-2-(2-thiomethylimidazol-1-yl)ethyl]imidazole dihydrochloride] | 3.1 | 3.1 | 3.1 | 1.5 | 6.2
50 | 25 | 25 | 25 | 25 | c1ccc(CCCN2CCN=C2C(Cn2ccnc2)c2ccccc2)cc1 (stereo not drawn) [Example 18, 4,5-Dihydro-2-[2-(imidazol-1-yl)-1-phenylethyl]-1-(3-phenylpropyl)imidazoledihydrochloride] | – | – | – | – | –
25 (≈ 64.7 µM) | 25 (≈ 64.7 µM) | 25 (≈ 64.7 µM) | 25 (≈ 64.7 µM) | 12.5 (≈ 32.4 µM) | Clc1ccc(N2CCN=C2C(Cn2cncn2)c2ccccc2)c(Cl)c1 (stereo not drawn) [Example 20, 1-(2,4-Dichlorophenyl)-4,5-dihydro-2-[1-phenyl-2-(1,2,4-triazol-1-yl)ethyl]imidazole] | – | – | – | – | –
– | – | 100 | – | – | Clc1ccc(CN2CCN=C2C(Cn2cccn2)c2ccccc2)c(Cl)c1 (stereo not drawn) [Example 16, 1-(2,4-Dichlorophenylmethyl)-4,5-dihydro-2-[1-phenyl-2-(pyrazol-1-yl)ethyl]imidazole dihydrochloride] | – | – | – | – | –
12.5 | 12.5 | 12.5 | 12.5 | 6.2 | FC(F)(F)c1cccc(N2CCN=C2C(Cn2ccnc2)c2ccccc2)c1 (stereo not drawn) [Example 4, 4,5-Dihydro-2-[2-(imidazol-1-yl)-1-phenylethyl]-1-(3-trifluoromethylphenyl)imidazole hydrochloride] | – | – | – | – | –
12.5 | 25 | 12.5 | – | 12.5 | CCCCCCCCN1CCN=C1C(Cn1ccnc1)c1ccccc1 (stereo not drawn) [Example 19, 4,5-Dihydro-2-[2-(imidazol-1-yl)-1-phenylethyl]-1-n-octylimidazole dihydrochloride] | 25 | 100 | 12.5 | 6.2 | 25
1.5 | 1.5 | – | 1.5 | 1.5 | CC1=NCCN1CC(C1=NCCN1c1ccc(Cl)cc1Cl)c1ccccc1 (stereo not drawn) [Example 23, 1-(2,4-Dichlorophenyl)-4,5-dihydro-2-[2-(4,5-dihydro-2-methylimidazol-1-yl)-1-phenylethyl]imidazole dihydrochloride] | 1.5 | 1.5 | 1.5 | 3.1 | 1.5
50 | 50 | 50 | – | 50 | Clc1ccc(CN2CCN=C2C(Cn2cncn2)c2ccccc2)c(Cl)c1 (stereo not drawn) [Example 17, 1-(2,4-Dichlorophenylmethyl)-4,5-dihydro-2-[1-phenyl-2-(1,2,4-triazol-1-yl)ethyl]imidazole dihydrochloride] | – | – | – | – | –
– | – | 6.2 (≈ 15.5 µM) | – | – | Clc1ccc(CN2CCN=C2C(Cn2ccnc2)c2ccccc2)c(Cl)c1 (stereo not drawn) [Example 15, 1-(2,4-Dichlorophenylmethyl)-4,5-dihydro-2-[2-(imidazol-1-yl)-1-phenylethyl]imidazole] | – | – | – | – | –
– | – | – | – | 2.1 | CCCCCCCCCCN1CCN=C1C(Cn1ccnc1)c1ccccc1.Cl.Cl (stereo not drawn) [Example 26, 1-n-Decyl-4,5-dihydro-2-[2-(imidazol-1-yl)-1-phenylethyl]imidazole dihydrochloride] | 3.1 | 50 | 3.1 | – | 3.1
6.2 (≈ 17.7 µM) | 6.2 (≈ 17.7 µM) | 12.5 (≈ 35.6 µM) | 12.5 (≈ 35.6 µM) | – | Clc1ccccc1N1CCN=C1C(Cn1ccnc1)c1ccccc1 (stereo not drawn) [Example 1, 1-(2-Chlorophenyl)-4,5-dihydro-2[2-(imidazol-1-yl)-1-phenylethyl]imidazole] | – | – | – | – | –
12.5 | 12.5 | 25 | 12.5 | 25 | Cc1ccc(N2CCN=C2C(Cn2ccnc2)c2ccccc2)c(C)c1 (stereo not drawn) [Example 24, 4,5-Dihydro-1-(2,4-dimethylphenyl)-2-[2-(imidazol-1-yl)-1-phenylethyl]imidazole dihydrochloride] | – | – | – | – | –

Compound | MIC [1] [µg/mL] | MIC [2] [µg/mL] | MIC [3] [µg/mL] | MIC [4] [µg/mL] | MIC [5] [µg/mL] | MBC [1] [µg/mL] | MBC [2] [µg/mL] | MBC [3] [µg/mL] | MBC [4] [µg/mL] | MBC [5] [µg/mL]
Brc1ccc(N2CCN=C2C(Cn2ccnc2)c2ccccc2)c(Br)c1 (stereo not drawn) [Example 2, 1-(2,4-Dibromophenyl)-4,5-dihydro-2-[2-imidazol-1-yl)-1-phenylethyl]imidazole dihydrochloride] | 1.5 | 1.5 | – | – | – | 50 | 12.5 | 2.5 | 12.5 | 3.1
Cc1nccn1CC(C1=NCCN1c1ccc(Cl)cc1Cl)c1ccccc1 (stereo not drawn) [Example 21, 1-(2,4-Dichlorophenyl)-4,5-dihydro-2-[2-(2-methylimidazol-1-yl)-1-phenylethyl]imidazole dihydrochloride] | – | – | – | 1.5 | 12.5 | 0.8 | 0.8 | 0.8 | 1.5 | 12.5
